Reference: patent US20200291082A1, “PREVENTION AND TREATMENT OF GRAFT-VERSUS-HOST-DISEASE WITH DEFENSINS” (priority 2017, published 2020)
“Also recorded” adds a separate entry of the source. No end group written: not given here.

Tests used:
[1] = tested on: Dextran Sodium Sulphate induced colitis; test: prophylactic murine 10-day oral Dextran Sodium Sulphate induced colitis model, s.c. and i.v. hBD2 versus i.p. mouse anti TNF-α (Example 1); assay type: in vivo, C57BL/6 mice; conditions: for histological score of distal colon: FIG. 9; for disease activity index (DAI): 10 days
Procedure: Anti-inflammatory effect of s.c. and i.v. administration of hBD2 versus intraperitoneal mouse anti TNF-α in a prophylactic, murine, 10-day, oral Dextran Sodium Sulphate induced colitis model.
70 male C57BL/6 mice housed in groups of five per cage were allocated to 7 different treatment groups. All animals had their drinking water supplemented with DSS 2% for 7 days to induce colitis resulting in significant inflammation and injury of the colonic tissue. The animals were treated with hBD2 dosed intravenously in the tail vein or subcutaneously under the dorsal skin, with mouse anti TNF-α intraperitoneally or PBS as vehicle for 10 days.
(§1) A disease activity index (DAI) scoring system was applied for clinical assessment (FIG. 7). The animals were sacrificed on day 10 and colon removed for histological assessment employing a histological scoring system (FIG. 8).

[2] = tested on: Dextran Sodium Sulphate induced colitis; test: prophylactic murine 10-day oral Dextran Sodium Sulphate induced colitis model, oral hBD2 versus oral prednisolone (Example 2); assay type: in vivo, C57BL/6 mice; conditions: for histological score, compared with prednisolone: all three oral hBD2 dose groups versus prednisolone 1 mg/kg; for body weight loss / body weight change: all three oral hBD2 dose levels (0.05, 0.5, 5 mg/kg twice per day), 10 days; for histological score: versus vehicle, Prednisolone 1 mg/kg twice per day p.o., oral hBD2 all doses
Procedure: Anti-inflammatory effect of oral administration of hBD2 versus oral prednisolone in a prophylactic murine, 10-day, oral Dextran Sodium Sulphate induced colitis model.
50 male C57BL/6 mice housed in groups of five per cage were allocated to 5 different treatment groups. All animals had their drinking water supplemented with DSS 2% for 7 days to induce colitis resulting in significant inflammation and injury of the colonic tissue. The animals were treated with oral hBD2 dosed at three different dose levels twice per day or prednisolone 1 mg/kg twice per day or PBS as vehicle for 10 days.
as §1

[3] = tested on: house dust mite model of allergic asthma; test: therapeutic intranasal versus oral hBD2 in murine house dust mite model of allergic asthma (Example 10); assay type: in vivo, BALB/c mice; conditions: hBD2, both dosing routes
[4] = tested on: microbiota in diet-induced obese mice; test: interventional treatment of dysbiosis with defensins in diet-induced obese mice (Example 8); assay type: in vivo
Text: Mice and diets. The experiment elucidates the effect of hBD2 and HD5 on the microbiota in diet-induced obese mice. A run-in period of 13 weeks where mice were fed a very HFD (60% energy from fat) preceded the intervention. Only mice meeting the criteria of a minimum of 12 gram weight gain (approximately 50% of initial bodyweight) during the run-in period were included in the final analyses. […] They were exposed to all experimental tests, but excluded from the analyses.
Treatment regimen. Before the intervention all mice were MR scanned. Cages of mice were allocated to experimental groups based on their fat mass. All subsequent measures were paired with data from the same mouse before the intervention. A LFD (low fat diet) reference group was running in parallel. As controls for the intervention 2 additional groups were included: 1 very HFD and 1 LFD. Experimental mice stayed on the very HFD during the intervention (FIG. 3). The mice were on the experimental diet for 10 weeks. They were co-housed throughout the experiment, 4 mice per cage, 3 cages per group. All tests ran over 3 days, 1 cage per group per day.
Tests. Microbial analyses were carried out to study the microbiota of the intestine.
Longitudinal 16S characterization was conducted on 4 paired samples from 60 mice, 240 samples in total. Each mouse was sampled prior to diet change, 1 week post diet change, 4 weeks post diet change and at termination, thus ensuring a thorough characterization of the faecal microbiota as a result of defensin treatment.

[5] = tested on: gut microbiota in high fat diet murine model; test: prophylactic treatment with defensins in murine high fat diet model, gut microbiota (Example 7); assay type: in vivo, mice
Text: Protection and preservation of gut microbiota by prophylactic treatment with defensins. Mice: Mice were housed in trios, 4 cages per group. Feed intake was registered daily just before lights were turned off at 6 pm. Individual mice were subjected to experimental procedures in altered order both group and cage wise. Mice were kept at room temperature under a 12-hour light/dark cycle at SPF standard conditions. Diets: For dosing, the average weight was estimated to be 25 grams per mouse. Mice eat approximately 3 grams of feed per mouse per day. Treatment regime: Mice were fed either a high fat diet (HFD) or a low fat (LF) control diet. The HFD contained 4 subgroups; 1 hBD2, 1 HD5, 1 hBD2/HD5 and 1 standard HFD without supplementation of defensins (FIG. 3). Defensin concentration was 1,2 mg hBD2 per kg mouse per day. HD5 was given in equimolar concentration to hBD2. […] Microbial analyses were carried out to study the microbiota of the intestine. Longitudinal 16S characterization was conducted on 4 paired samples from 60 mice, 240 samples in total. Each mouse was sampled prior to diet change, 1 week post diet change, 4 weeks post diet change and at termination, thus ensuring a thorough characterization of the faecal microbiota as a result of defensin treatment.

[6] = colon, prophylactic treatment with hBD2

Substance: human beta defensin 2 (GIGDPVTCLKSGAICHPVFCPRRYKQIGTCGLPGTKCCKKP; not fully specified (bridges); ends and bridges not checked; listed as Homo sapiens) [hBD2]
- histological score of distal colon ([1]; hBD2 0.1 mg/kg compared with mouse anti TNF-α): statistically significant superiority
- histological score of distal colon ([1]; subcutaneous compared with i.v. hBD2 administration): superiority over i.v. administration
- disease activity index (DAI) ([1]; hBD2 intravenous administration): significant reduction of DAI
- histology score ([1]; hBD2 s.c. twice daily, colon day 10): highly statistical significant effect on histology score
- disease activity index (DAI) ([1]; hBD2 subcutaneous route, once or twice daily): most significant effect
- disease activity index score, compared with prednisolone ([2]; FIG. 11, orally administered hBD2 versus prednisolone 1 mg/kg): statistically significant superiority
- histological score, compared with prednisolone [2]: significantly better than Prednisolone
- histological score, compared with prednisolone ([2]; listed as HBD2): on par with prednisolone 1 mg/kg
- body weight loss / body weight change [2]: dramatically reduced loos of body weight
- body weight loss / body weight change ([2]; listed as HBD2hBD2): weight preserving effect
- body weight loss ([2]; high dose group hBD2 5 mg/kg BID oral): most pronounced
- disease activity index (DAI) ([2]; high dose hBD2 5 mg/kg BID oral, compared with lower doses and Prednisolone): significantly better effect on DAI
- disease activity index (DAI) ([2]; two lower dose levels of oral hBD2 (0.05, 0.5 mg/kg twice per day)): statistically significant effect on DAI on par with Prednisolone
- histological score [2]: statistically significant effect on histological score
- histological score ([2]; listed as HBD2): statistical significant effect
- IL-4 level in lung tissue homogenates [3]: significant effects
- IL-5 level in lung tissue homogenates [3]: significant effects
- weight gain ([4]; HFD plus hBD2, first 4 weeks post dietary intervention, versus standard HFD): tended to gain less weight
- weight gain ([4]; HFD plus hBD2, week 4 to end of study period): gained similar weight as the standard HFD group
- abundance of Alloprevotella ([4]; colon): no influence on Alloprevotella abundance
- relative abundance of Bifidobacteriaceae ([4]; colon): dramatically and statistically significant increased
- relative abundance of Bifidobacteriaceae ([4]; small intestine): dramatically and statistically significant increased
- weight gain ([5]; HFD plus hBD2 (1,2 mg per kg per day) versus HFD reference group, 10 week study period): gained significantly less weight
- abundance of Barnesiella [5, 6]: statistically significant increase in abundance of Barnesiella
- abundance of Lactobacillaceae [5, 6]: trend towards lower abundance
- steatosis (intra hepatocytic fat accumulation) ([5]; liver, HFD mice with prophylactic oral hBD-2 1.2 mg/kg daily, 1.2 mg/kg): minimal intra hepatocyte fat accumulation; also recorded: minimal steatosis
- microbial presence and abundance (unifrac analysis) ([5]; prophylactic oral defensins in high fat diet): affected primarily the microbial presence
